Counter-ions that a name gives are not always drawn.
What was measured:
[1] = target: T1, human somatostatin receptor SSTR2 (Homo sapiens, UniProt P30874); experiment: Binding inhibition of 125I-somatostatin, CHO cell membrane fraction; settings: 125I-somatostatin binding, 25° C. for 60 minutes, read-out: Activities for human somatostatin receptor (IC50 value) SSTR2
T1 construct: expressed in transfected cells; host or cells: CHO (dhfr-) cells, strain SSTR2-HS5-9
Experimental: (§1) A human somatostatin receptor expression CHO cell strain, SSTR1-8-3, SSTR2-HS5-9, SSTR3-15-19, SSTR4-1-2 or SSTR5-32-4 (10^9), was suspended in a phosphate buffered saline containing 5mM of EDTA (PBS-EDTA). The suspension was centrifuged. To the cell pellet was added 10 ml of a homogenation buffer solution for cells (10 mM NaHCO3, 5 mM EDTA, pH=7.5). The mixture was homogenized by a Politron homogenizer and centrifuged at 400×g for 15 minutes. The supernatant obtained was farther centrifuged at 100,000×g for an hour to obtain a precipitate of the membrane fraction. The precipitate was suspended in 2 ml of a buffer solution for assay ([…], 0.1% of BSA (bovine serum albumin) and […], 1 μ/ml of pepstatin, 20 μg/ml of leupeptin, 10 μg/ml of phosphoramide, pH=7.5). The suspension was centrifuged at […] for an hour. The membrane fraction recovered as precipitate was suspended again in 20 ml of buffer solution for assay. The suspension was placed in tubes and stored at −80° C. The suspension was thawed when used, and used at every use.
(§2) The membrane fraction prepared in Example 1 was diluted with a buffer solution for assay to adjust the concentration to 3 μg/ml. The diluate was placed in tubes each in quantity of 173 μl. To this were simultaneously added 2 μl of a solution of a compound in DMSO and 25μl of a 200pM radioisotope-labeled somatostatin (^125I-somatostatin: Amersham) solution. For measurement of the maximum binding, a reaction mixture added with 2 μl of DMSO and 25μl of a 200pM ^125I-somatostatin solution was prepared. For measurement of non-specific binding, a reaction mixture added with 2 μl of a 100 μM somatostatin solution diluted in DMSO and 25 μl of a 200pM ^125I-somatostatin solution was prepared at the same time. The mixtures were allowed to react at 25° C. for 60 minutes. Then, the reaction mixture was filtered by aspiration using a GF/B glass fiber filter paper (Whatman) treated with polyethylenimine. After filtration, the radioactivity of 125I-somatostatin remaining on the filter paper was measured by a γ-counter.
(§3) The binding rate (%) of each compound was calculated by the formula: […]
(§4) (where PBM: Percent maximum Binding, B: radioactivity when a compound was added, Bo: maximum binding radioactivity, NSB: non-specific binding radioactivity). The binding rates were calculated by changing the concentrations of the compound to obtain the 50% inhibiting concentration of the compound (IC50 value) by the Hil l plots.
(§5) The activities (IC50 value, μM) of the compounds for each human somatostatin receptor obtained by the above method are shown in the following Table 5.

[2] = target: T2, human somatostatin receptor SSTR4 (Homo sapiens, UniProt P31391); experiment: as above; settings: 125I-somatostatin binding, 25° C. for 60 minutes, read-out: Activities for human somatostatin receptor (IC50 value) SSTR4
T2 construct: expressed in transfected cells; host or cells: CHO (dhfr-) cells, strain SSTR4-1-2
Experimental: as §1, §2, §3, §4, §5

[3] = target: T3, human somatostatin receptor SSTR3 (Homo sapiens, UniProt P32745); experiment: as above; settings: 125I-somatostatin binding, 25° C. for 60 minutes, read-out: Activities for human somatostatin receptor (IC50 value) SSTR3
T3 construct: expressed in transfected cells; host or cells: CHO (dhfr-) cells, strain SSTR3-15-19
Experimental: as §1, §2, §3, §4, §5

[4] = target: T4, human somatostatin receptor SSTR5 (Homo sapiens, UniProt P35346); experiment: as above; settings: 125I-somatostatin binding, 25° C. for 60 minutes, read-out: Activities for human somatostatin receptor (IC50 value) SSTR5
T4 construct: expressed in transfected cells; host or cells: CHO (dhfr-) cells, strain SSTR5-3-2-4 (also printed SSTR5-32-4)
Experimental: as §1, §2, §3, §4, §5

[5] = target: T1, human somatostatin receptor SSTR2; experiment: Inhibition of forskolin-stimulated accumulation of cAMP in receptor expression CHO cells; assay type: cell-based; settings: forskolin 10 μM, 37° C. for 30 minutes, read-out: Inhibitory effect on forskolin-stimulated accumulation of cAMP (ED50 value) SSTR2
Experimental: (§6) For measurement of the accumulated intracellular adenosine 3′,5′-monophosphate (cAMP), the human somatostatin receptor expression cell strains, SSTR2-HS5-9, SSTR-3-15-19, SSTR4-1-2 and SSTR5-32-4, mentioned in Reference Examples 2-3, 3-3,4-3 and 5-3, respectively, were proliferated in 24-well plate until they were confluent. Said cells were washed twice with 1 ml of Medium A [Dulbecco's Modified Eagle Medium (DMEM), 20 mM 2-(4-(2-hydroxyethyl)-1-piperazinyl]ethanesulfonic acid (HEPES) (pH 7.5), 0.2% bovine serum albumin and 0.2 mM 3-isobutyl-1-methylxanthine (IBMX)]. The medium A was placed in wells each in quantity of 400 μl and incubated at 37° C. for an hour. A solution of the compounds of Example 5 and Example 102 (solution obtained by diluting with Medium A to the 10-fold concentration of the final concentration) and a forskolin solution (final concentration 10 μM) were placed in wells each in quantities of 50 μl and 50 μl, respectively, and incubated at 37° C. for 30 minutes. The cells were washed twice with 1 ml of Medium A. Medium A (500 μl) and 100 μl of a 20% aqueous perchloric acid solution were placed in each well and left standing for 20 minutes at 4° C. to lyse the cells. The lyzate was placed in an Eppendorf's tube and centrifuged (15.000 rpm, for 10 minutes). The supernatant was placed in another Eppendorf's tube in quantity of 500 μl and neutralized with 60 mM of a HEPES aqueous solution containing 1.5 M of potassium chloride. The content of cAMP contained in this extract was determined by the Amersham kit (cAMP EIA system).

[6] = target: T2, human somatostatin receptor SSTR4; experiment: as above; assay type: cell-based; settings: forskolin 10 μM, 37° C. for 30 minutes, read-out: Inhibitory effect on forskolin-stimulated accumulation of cAMP (ED50 value) SSTR4
Experimental: as §6

[7] = target: T3, human somatostatin receptor SSTR3; experiment: as above; assay type: cell-based; settings: forskolin 10 μM, 37° C. for 30 minutes, read-out: Inhibitory effect on forskolin-stimulated accumulation of cAMP (ED50 value) SSTR3
Experimental: as §6

[8] = target: T4, human somatostatin receptor SSTR5; experiment: as above; assay type: cell-based; settings: forskolin 10 μM, 37° C. for 30 minutes, read-out: Inhibitory effect on forskolin-stimulated accumulation of cAMP (ED50 value) SSTR5
Experimental: as §6

T2 sequence (P31391 whole entry): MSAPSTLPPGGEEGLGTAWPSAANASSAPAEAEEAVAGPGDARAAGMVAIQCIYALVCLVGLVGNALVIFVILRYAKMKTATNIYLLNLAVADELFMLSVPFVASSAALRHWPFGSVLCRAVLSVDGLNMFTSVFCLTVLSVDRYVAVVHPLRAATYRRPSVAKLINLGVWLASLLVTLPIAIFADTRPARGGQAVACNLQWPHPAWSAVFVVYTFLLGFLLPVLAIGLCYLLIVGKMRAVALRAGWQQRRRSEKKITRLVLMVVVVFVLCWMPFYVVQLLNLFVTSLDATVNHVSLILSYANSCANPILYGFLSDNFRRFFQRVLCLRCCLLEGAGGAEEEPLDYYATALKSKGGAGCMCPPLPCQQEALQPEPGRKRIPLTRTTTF
T1 sequence (P30874 whole entry): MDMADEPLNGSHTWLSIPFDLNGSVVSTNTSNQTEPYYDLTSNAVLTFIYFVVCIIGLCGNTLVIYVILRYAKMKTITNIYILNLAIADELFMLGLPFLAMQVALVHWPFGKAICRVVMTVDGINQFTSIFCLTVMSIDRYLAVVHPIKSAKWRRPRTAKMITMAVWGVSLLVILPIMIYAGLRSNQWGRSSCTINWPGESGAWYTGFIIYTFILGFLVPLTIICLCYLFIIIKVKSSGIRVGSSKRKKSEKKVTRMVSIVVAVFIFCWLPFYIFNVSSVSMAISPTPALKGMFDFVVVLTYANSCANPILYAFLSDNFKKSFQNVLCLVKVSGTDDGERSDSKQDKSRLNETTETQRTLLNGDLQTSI
T4 sequence (P35346 whole entry): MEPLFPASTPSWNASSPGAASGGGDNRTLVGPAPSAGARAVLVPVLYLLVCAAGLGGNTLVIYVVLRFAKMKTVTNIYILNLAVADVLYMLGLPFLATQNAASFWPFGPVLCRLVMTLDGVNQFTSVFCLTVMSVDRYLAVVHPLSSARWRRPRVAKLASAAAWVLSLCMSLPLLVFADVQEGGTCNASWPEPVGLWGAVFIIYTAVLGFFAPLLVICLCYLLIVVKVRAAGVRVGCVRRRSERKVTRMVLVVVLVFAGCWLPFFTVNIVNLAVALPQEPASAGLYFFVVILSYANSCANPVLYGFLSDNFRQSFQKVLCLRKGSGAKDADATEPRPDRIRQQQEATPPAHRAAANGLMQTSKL
T3 sequence (P32745 whole entry): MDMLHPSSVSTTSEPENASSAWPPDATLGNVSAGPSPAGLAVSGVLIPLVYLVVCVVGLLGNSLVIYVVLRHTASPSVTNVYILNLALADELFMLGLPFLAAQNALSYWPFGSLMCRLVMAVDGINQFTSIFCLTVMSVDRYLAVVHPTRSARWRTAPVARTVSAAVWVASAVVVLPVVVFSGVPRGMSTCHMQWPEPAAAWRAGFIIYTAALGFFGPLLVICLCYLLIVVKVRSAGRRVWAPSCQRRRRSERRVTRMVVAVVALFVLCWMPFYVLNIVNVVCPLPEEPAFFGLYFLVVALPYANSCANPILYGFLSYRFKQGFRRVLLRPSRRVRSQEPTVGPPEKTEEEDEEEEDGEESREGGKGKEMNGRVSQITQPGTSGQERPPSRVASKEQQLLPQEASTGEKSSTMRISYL

IC50 [1] [nM]	IC50 [2] [nM]	IC50 [3] [nM]	IC50 [4] [nM]	EC50 [5] [nM]	EC50 [6] [nM]	EC50 [7] [nM]	EC50 [8] [nM]	SMILES
100	300	3	0.7	300	200	2	0.7	NCc1cccc(C2OC(CC(=O)NCc3ccccc3F)C(=O)N(Cc3ccc(-c4ccccc4)cc3)c3ccc(Cl)cc32)c1 (stereo not drawn) [Example 5, 3,5-Trans-N-(2-fluorobenzyl)-5-(3-aminomethylphenyl)-1-(4-biphenylmethyl)-7-chloro-2-oxo-1,2,3,5-tetrahydro-4,1-benzoxazepine-3-acetamide•monohydrochloride]
60	300	80	0.1	200	100	0.3	0.3	NCc1cccc(C2OC(CC(=O)NCc3ccccc3F)C(=O)N(Cc3ccc(O)cc3)c3ccc(Cl)cc32)c1 (stereo not drawn) [Example 102, 3,5-Trans-N-(2-fluorobenzyl)-5-(3-aminomethylphenyl)-7-chloro-1-(4-hydroxybenzyl)-2-oxo-1,2,3,5-tetrahydro-4,1-benzoxazepine-3-acetamide•monohydrochloride]

Reference: patent US6352982B1, “4,1-benzoxazepines, their analogues, and their use as somatostatin agonists” (Takeda Chemical Industries, Ltd., priority 1997, dated 2002)
